Laboratory results published in PubChem BioAssay (NCI).
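Where inhibition never reached the appropriate level, the endpoint shown equals the highest concentration tested. Otherwise, values were interpolated linearly from a five-concentration, 48-hour dose response in 96-well plates. TGI marks complete inhibition of growth.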

system: OVCAR-3 ovarian; experiment: NCI-60 cell line screen, 48 h

Structure (SMILES) | TGI [µM]
CSc1nnc(SC)nn1 | 31.6
CCOC(=O)c1cn2c(n1)sc1cc(Cl)ccc12 | 64.5
CC(C)=C[C@H]1CCC2(OCCO2)[C@]1(C)COCc1ccccc1 | 52.7
COC(=O)c1cc2c(cc1Cl)Sc1nnc(Nc3ccc(C)cc3)n1S2(=O)=O | 5.77
c1ccc(CNc2nncc3[nH]cnc23)cc1 | > 100
CCN1CCN(c2nc3ccccc3c3c2CCOc2ccccc2-3)CC1 | > 100
N#Cc1c(-c2ccccc2)[nH]c2ccc(Cl)cc2c1=O | > 100
O=C(NCP(=O)(c1ccccc1)c1ccccc1)OCc1ccccc1 | > 100
O=c1cc(N2CCCC2)[nH]c(=O)n1-c1cccc(Cl)c1 | > 100
O=C1NC(=S)NC(=O)C1C(c1ccc(O)cc1)C1C(=O)NC(=S)NC1=O | > 100
C/C(=N/NC(N)=S)c1ccc[nH]1 | > 100
CCc1cc(Cc2cc(CC)c(NC(=O)C(=O)CC(=O)c3sc(-c4cccnc4)nc3C)c(CC)c2)cc(CC)c1NC(=O)C(=O)CC(=O)c1sc(-c2cccnc2)nc1C | > 100
NNC(=S)N/N=C(/C(=O)Nc1ccc(Cl)c(Cl)c1)C(C1OC(=O)c2ccccc21)[N+](=O)[O-] (stereo unspecified) | > 100
CO/C=C(/C(=O)OC)c1ccccc1COc1cccc(C(F)(F)F)c1 | 55
C1=Cc2cc3c(c4nccc(c24)N1)OCO3 | > 100

system: MDA-N; experiment: NCI-60 cell line screen, 48 h

Structure (SMILES) | TGI [µM]
CC(C)=C[C@H]1CCC2(OCCO2)[C@]1(C)CO | > 100
O=C(N/N=C\C=C\c1ccc([N+](=O)[O-])o1)C(=O)N/N=C\C=C\c1ccc([N+](=O)[O-])o1 | > 100
CSc1nnc(SC)nn1 | 30.1
N#CCCC(CCC#N)(CCC#N)NO | > 100
CCOC(=O)c1cn2c(n1)sc1cc(Cl)ccc12 | 12.6
CC(C)=C[C@H]1CCC2(OCCO2)[C@]1(C)COCc1ccccc1 | > 100
COC(=O)c1cc2c(cc1Cl)Sc1nnc(Nc3ccc(C)cc3)n1S2(=O)=O | 20.6
c1ccc(CNc2nncc3[nH]cnc23)cc1 | > 100
CCN1CCN(c2nc3ccccc3c3c2CCOc2ccccc2-3)CC1 | > 55.8
N#Cc1c(-c2ccccc2)[nH]c2ccc(Cl)cc2c1=O | > 100
O=C(NCP(=O)(c1ccccc1)c1ccccc1)OCc1ccccc1 | > 100
O=c1cc(N2CCCC2)[nH]c(=O)n1-c1cccc(Cl)c1 | > 100
O=C1NC(=S)NC(=O)C1C(c1ccc(O)cc1)C1C(=O)NC(=S)NC1=O | > 100
CC(=O)[C@@H](C)C(=O)N1C(=O)OC[C@@]12[C@@H]1CC[C@@H](C1)C2(C)C | > 100
C/C(=N/NC(N)=S)c1ccc[nH]1 | > 100
CCc1cc(Cc2cc(CC)c(NC(=O)C(=O)CC(=O)c3sc(-c4cccnc4)nc3C)c(CC)c2)cc(CC)c1NC(=O)C(=O)CC(=O)c1sc(-c2cccnc2)nc1C | > 100
NNC(=S)N/N=C(/C(=O)Nc1ccc(Cl)c(Cl)c1)C(C1OC(=O)c2ccccc21)[N+](=O)[O-] (stereo unspecified) | > 100
CO/C=C(/C(=O)OC)c1ccccc1COc1cccc(C(F)(F)F)c1 | > 100
C1=Cc2cc3c(c4nccc(c24)N1)OCO3 | 24.2

system: BT-549 breast; experiment: NCI-60 cell line screen, 48 h

Structure (SMILES) | TGI [µM]
CC(C)=C[C@H]1CCC2(OCCO2)[C@]1(C)CO | > 100
O=C(N/N=C\C=C\c1ccc([N+](=O)[O-])o1)C(=O)N/N=C\C=C\c1ccc([N+](=O)[O-])o1 | > 100
CSc1nnc(SC)nn1 | 29.7
N#CCCC(CCC#N)(CCC#N)NO | > 100
CCOC(=O)c1cn2c(n1)sc1cc(Cl)ccc12 | > 100
CC(C)=C[C@H]1CCC2(OCCO2)[C@]1(C)COCc1ccccc1 | > 100
COC(=O)c1cc2c(cc1Cl)Sc1nnc(Nc3ccc(C)cc3)n1S2(=O)=O | 30.5
c1ccc(CNc2nncc3[nH]cnc23)cc1 | > 100
CCN1CCN(c2nc3ccccc3c3c2CCOc2ccccc2-3)CC1 | > 100
N#Cc1c(-c2ccccc2)[nH]c2ccc(Cl)cc2c1=O | 80.9
O=C(NCP(=O)(c1ccccc1)c1ccccc1)OCc1ccccc1 | > 100
O=c1cc(N2CCCC2)[nH]c(=O)n1-c1cccc(Cl)c1 | > 100
O=C1NC(=S)NC(=O)C1C(c1ccc(O)cc1)C1C(=O)NC(=S)NC1=O | > 100
CC(=O)[C@@H](C)C(=O)N1C(=O)OC[C@@]12[C@@H]1CC[C@@H](C1)C2(C)C | > 100
C/C(=N/NC(N)=S)c1ccc[nH]1 | > 100
CCc1cc(Cc2cc(CC)c(NC(=O)C(=O)CC(=O)c3sc(-c4cccnc4)nc3C)c(CC)c2)cc(CC)c1NC(=O)C(=O)CC(=O)c1sc(-c2cccnc2)nc1C | > 100
NNC(=S)N/N=C(/C(=O)Nc1ccc(Cl)c(Cl)c1)C(C1OC(=O)c2ccccc21)[N+](=O)[O-] (stereo unspecified) | > 100
CO/C=C(/C(=O)OC)c1ccccc1COc1cccc(C(F)(F)F)c1 | > 100
C1=Cc2cc3c(c4nccc(c24)N1)OCO3 | 48.8

system: MALME-3M melanoma; experiment: NCI-60 cell line screen, 48 h

Structure (SMILES) | TGI [µM]
CC(C)=C[C@H]1CCC2(OCCO2)[C@]1(C)CO | > 100
O=C(N/N=C\C=C\c1ccc([N+](=O)[O-])o1)C(=O)N/N=C\C=C\c1ccc([N+](=O)[O-])o1 | > 100
CSc1nnc(SC)nn1 | 27
N#CCCC(CCC#N)(CCC#N)NO | > 100
CCOC(=O)c1cn2c(n1)sc1cc(Cl)ccc12 | 99.1
CC(C)=C[C@H]1CCC2(OCCO2)[C@]1(C)COCc1ccccc1 | > 100
COC(=O)c1cc2c(cc1Cl)Sc1nnc(Nc3ccc(C)cc3)n1S2(=O)=O | 26.3
c1ccc(CNc2nncc3[nH]cnc23)cc1 | > 100
CCN1CCN(c2nc3ccccc3c3c2CCOc2ccccc2-3)CC1 | 35.3
N#Cc1c(-c2ccccc2)[nH]c2ccc(Cl)cc2c1=O | > 100
O=C(NCP(=O)(c1ccccc1)c1ccccc1)OCc1ccccc1 | > 100
O=c1cc(N2CCCC2)[nH]c(=O)n1-c1cccc(Cl)c1 | > 100
O=C1NC(=S)NC(=O)C1C(c1ccc(O)cc1)C1C(=O)NC(=S)NC1=O | > 100
CC(=O)[C@@H](C)C(=O)N1C(=O)OC[C@@]12[C@@H]1CC[C@@H](C1)C2(C)C | > 100
C/C(=N/NC(N)=S)c1ccc[nH]1 | > 100
CCc1cc(Cc2cc(CC)c(NC(=O)C(=O)CC(=O)c3sc(-c4cccnc4)nc3C)c(CC)c2)cc(CC)c1NC(=O)C(=O)CC(=O)c1sc(-c2cccnc2)nc1C | > 100
NNC(=S)N/N=C(/C(=O)Nc1ccc(Cl)c(Cl)c1)C(C1OC(=O)c2ccccc21)[N+](=O)[O-] (stereo unspecified) | > 100
CO/C=C(/C(=O)OC)c1ccccc1COc1cccc(C(F)(F)F)c1 | 29.4
C1=Cc2cc3c(c4nccc(c24)N1)OCO3 | 26

system: UACC-62 melanoma; experiment: NCI-60 cell line screen, 48 h

Structure (SMILES) | TGI [µM]
O=C(N/N=C\C=C\c1ccc([N+](=O)[O-])o1)C(=O)N/N=C\C=C\c1ccc([N+](=O)[O-])o1 | > 100
CSc1nnc(SC)nn1 | 34
N#CCCC(CCC#N)(CCC#N)NO | > 100
CCOC(=O)c1cn2c(n1)sc1cc(Cl)ccc12 | > 100
COC(=O)c1cc2c(cc1Cl)Sc1nnc(Nc3ccc(C)cc3)n1S2(=O)=O | 26
c1ccc(CNc2nncc3[nH]cnc23)cc1 | > 100
CCN1CCN(c2nc3ccccc3c3c2CCOc2ccccc2-3)CC1 | 34.7
N#Cc1c(-c2ccccc2)[nH]c2ccc(Cl)cc2c1=O | > 100
O=C(NCP(=O)(c1ccccc1)c1ccccc1)OCc1ccccc1 | > 100
O=c1cc(N2CCCC2)[nH]c(=O)n1-c1cccc(Cl)c1 | > 100
O=C1NC(=S)NC(=O)C1C(c1ccc(O)cc1)C1C(=O)NC(=S)NC1=O | > 100
CC(=O)[C@@H](C)C(=O)N1C(=O)OC[C@@]12[C@@H]1CC[C@@H](C1)C2(C)C | > 100
C/C(=N/NC(N)=S)c1ccc[nH]1 | > 100
CCc1cc(Cc2cc(CC)c(NC(=O)C(=O)CC(=O)c3sc(-c4cccnc4)nc3C)c(CC)c2)cc(CC)c1NC(=O)C(=O)CC(=O)c1sc(-c2cccnc2)nc1C | > 100
NNC(=S)N/N=C(/C(=O)Nc1ccc(Cl)c(Cl)c1)C(C1OC(=O)c2ccccc21)[N+](=O)[O-] (stereo unspecified) | > 100
CO/C=C(/C(=O)OC)c1ccccc1COc1cccc(C(F)(F)F)c1 | 42
C1=Cc2cc3c(c4nccc(c24)N1)OCO3 | 32.2

system: UACC-257 melanoma; experiment: NCI-60 cell line screen, 48 h

Structure (SMILES) | TGI [µM]
CC(C)=C[C@H]1CCC2(OCCO2)[C@]1(C)CO | > 100
O=C(N/N=C\C=C\c1ccc([N+](=O)[O-])o1)C(=O)N/N=C\C=C\c1ccc([N+](=O)[O-])o1 | > 100
